In publication PMC5862592, “CDK8/19 inhibition induces premature G1/S transition and ATR-dependent cell death in prostate cancer cells” (Oncotarget, 2018) one finds remaining binding data, which are given here for two molecules.

Assay in all cases: biochemical
Common to all, as to parameters: KINOMEscan active site-directed competition binding assay (DiscoveRx), 456 kinases, per cent of control at 300 nM
Holding throughout (conditions): read-out: Percent of Control (%)

Test [1] concerns the target T1, ABL1(F317I)-nonphosphorylated (Homo sapiens, UniProt P00519, F317I).
T1 construct: nonphosphorylated
In a few lines: (§1)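 Single-concentration selectivity screen: compound 300 nmol/L; 456-kinase panel; active-site-directed competition binding read-out.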

In a further test the target is CDKL3 (Homo sapiens, UniProt Q8IVW4). The gist of the method: as §1
Another test addresses CHEK1 (Homo sapiens, UniProt O14757). The gist of the method: as §1
Another test deals with CLK4 (Homo sapiens, UniProt Q9HAZ1). In a few lines: as §1
A further test has as its target CSNK1A1 (Homo sapiens, UniProt P48729). The gist of the method: as §1
For another test, the target named is T2, DMPK2 (Homo sapiens, UniProt Q6DT37).
T2 construct: gene CDC42BPG
T2 sequence (Q6DT37 whole entry): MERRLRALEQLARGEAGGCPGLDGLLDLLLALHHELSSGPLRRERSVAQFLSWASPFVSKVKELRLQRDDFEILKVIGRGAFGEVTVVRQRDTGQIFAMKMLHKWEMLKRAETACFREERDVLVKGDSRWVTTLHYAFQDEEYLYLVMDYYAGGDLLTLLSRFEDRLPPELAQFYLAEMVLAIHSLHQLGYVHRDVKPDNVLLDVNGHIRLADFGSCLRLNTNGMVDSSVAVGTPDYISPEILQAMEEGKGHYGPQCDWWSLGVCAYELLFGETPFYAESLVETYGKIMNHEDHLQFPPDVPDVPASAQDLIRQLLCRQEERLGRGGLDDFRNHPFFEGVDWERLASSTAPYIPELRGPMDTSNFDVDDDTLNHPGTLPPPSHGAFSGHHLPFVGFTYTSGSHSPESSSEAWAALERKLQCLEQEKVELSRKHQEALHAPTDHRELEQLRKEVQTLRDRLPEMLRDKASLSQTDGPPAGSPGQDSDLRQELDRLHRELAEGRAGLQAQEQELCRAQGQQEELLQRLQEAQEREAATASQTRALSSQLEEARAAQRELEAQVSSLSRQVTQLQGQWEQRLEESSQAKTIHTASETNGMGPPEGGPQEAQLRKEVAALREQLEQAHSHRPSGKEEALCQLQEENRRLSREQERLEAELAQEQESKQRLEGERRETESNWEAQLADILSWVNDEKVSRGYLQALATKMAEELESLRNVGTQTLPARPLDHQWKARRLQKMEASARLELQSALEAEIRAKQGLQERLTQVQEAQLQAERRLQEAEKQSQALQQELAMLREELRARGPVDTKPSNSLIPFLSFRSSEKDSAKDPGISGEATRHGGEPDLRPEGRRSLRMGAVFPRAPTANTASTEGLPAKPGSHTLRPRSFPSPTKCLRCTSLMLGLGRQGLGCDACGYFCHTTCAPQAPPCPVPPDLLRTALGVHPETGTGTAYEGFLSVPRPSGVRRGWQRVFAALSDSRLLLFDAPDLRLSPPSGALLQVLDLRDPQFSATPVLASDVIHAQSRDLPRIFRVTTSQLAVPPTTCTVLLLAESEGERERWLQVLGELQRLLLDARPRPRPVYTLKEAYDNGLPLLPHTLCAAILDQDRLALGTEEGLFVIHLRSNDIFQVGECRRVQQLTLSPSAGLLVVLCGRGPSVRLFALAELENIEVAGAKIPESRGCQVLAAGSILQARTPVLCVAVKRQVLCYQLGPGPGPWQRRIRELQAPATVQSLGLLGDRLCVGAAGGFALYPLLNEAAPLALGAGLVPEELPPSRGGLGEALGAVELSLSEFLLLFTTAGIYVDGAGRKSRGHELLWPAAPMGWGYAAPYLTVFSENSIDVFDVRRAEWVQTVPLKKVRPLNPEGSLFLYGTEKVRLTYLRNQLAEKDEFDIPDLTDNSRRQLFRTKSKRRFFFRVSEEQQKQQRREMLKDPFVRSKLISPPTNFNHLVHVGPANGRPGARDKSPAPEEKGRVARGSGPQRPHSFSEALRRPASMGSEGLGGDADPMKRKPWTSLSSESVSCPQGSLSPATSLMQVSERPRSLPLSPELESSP
The gist of the method: as §1

Another test deals with DYRK2 (Homo sapiens, UniProt Q92630). The gist of the method:
as §1

In another test the target is EPHA6 (Homo sapiens, UniProt Q9UF33). The gist of the method:
as §1

For another test, the target named is FGFR3 (Homo sapiens, UniProt P22607). The gist of the method: as §1
Another test addresses GRK4 (Homo sapiens, UniProt P32298). The gist of the method: as §1
Another test deals with IRAK1 (Homo sapiens, UniProt P51617). The gist of the method:
as §1

Another test addresses LCK (Homo sapiens, UniProt P06239). In a few lines: as §1
The target in the next test is MAP4K2 (Homo sapiens, UniProt Q12851). In a few lines: as §1
The target in the next test is T3, PFPK5(P.falciparum) (Plasmodium falciparum, UniProt P61075).
T3 construct: gene MAL13P1.279
The gist of the method:
as §1

A further test addresses PIK3CA(Q546K) (Homo sapiens, UniProt P42336, Q546K). The gist of the method: as §1
A further test deals with PRKCQ (Homo sapiens, UniProt Q04759). In a few lines: as §1
Sequence of PRKCQ (Q04759 whole entry): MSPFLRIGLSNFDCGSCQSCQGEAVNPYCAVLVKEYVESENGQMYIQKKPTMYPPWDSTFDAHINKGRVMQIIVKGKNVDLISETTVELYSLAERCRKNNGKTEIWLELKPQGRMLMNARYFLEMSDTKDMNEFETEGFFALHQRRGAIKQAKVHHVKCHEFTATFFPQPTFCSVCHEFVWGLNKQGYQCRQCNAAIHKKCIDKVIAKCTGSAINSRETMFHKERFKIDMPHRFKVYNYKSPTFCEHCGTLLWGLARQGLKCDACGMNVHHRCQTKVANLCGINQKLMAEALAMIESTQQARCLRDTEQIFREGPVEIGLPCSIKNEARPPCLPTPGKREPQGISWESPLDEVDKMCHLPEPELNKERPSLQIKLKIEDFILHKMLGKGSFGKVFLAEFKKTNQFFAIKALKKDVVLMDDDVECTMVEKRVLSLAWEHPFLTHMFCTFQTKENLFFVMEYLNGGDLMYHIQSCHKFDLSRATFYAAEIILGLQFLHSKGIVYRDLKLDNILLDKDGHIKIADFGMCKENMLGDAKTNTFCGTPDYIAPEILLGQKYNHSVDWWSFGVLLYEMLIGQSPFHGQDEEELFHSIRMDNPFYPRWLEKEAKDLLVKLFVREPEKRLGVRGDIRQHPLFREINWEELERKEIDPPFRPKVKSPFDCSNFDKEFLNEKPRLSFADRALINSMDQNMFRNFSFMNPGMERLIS
The target in the next test is PRKX (Homo sapiens, UniProt P51817). The gist of the method:
as §1

For another test, the target named is RIOK1 (Homo sapiens, UniProt Q9BRS2). The gist of the method: as §1
The next test deals with ROCK2 (Homo sapiens, UniProt O75116). In a few lines:
as §1

The target in the next test is TLK2 (Homo sapiens, UniProt Q86UE8). The gist of the method:
as §1

Test [2] addresses T4, TYK2(JH1domain-catalytic) (Homo sapiens, UniProt P29597).
T4 construct: JH1domain-catalytic
The gist of the method:
as §1

The next test concerns the target TYRO3 (Homo sapiens, UniProt Q06418). The gist of the method:
as §1

The structures appear in SMILES notation. Where two headings read alike, the source gives them in different places.

Sequence of PIK3CA(Q546K) (P42336 whole entry Q546K): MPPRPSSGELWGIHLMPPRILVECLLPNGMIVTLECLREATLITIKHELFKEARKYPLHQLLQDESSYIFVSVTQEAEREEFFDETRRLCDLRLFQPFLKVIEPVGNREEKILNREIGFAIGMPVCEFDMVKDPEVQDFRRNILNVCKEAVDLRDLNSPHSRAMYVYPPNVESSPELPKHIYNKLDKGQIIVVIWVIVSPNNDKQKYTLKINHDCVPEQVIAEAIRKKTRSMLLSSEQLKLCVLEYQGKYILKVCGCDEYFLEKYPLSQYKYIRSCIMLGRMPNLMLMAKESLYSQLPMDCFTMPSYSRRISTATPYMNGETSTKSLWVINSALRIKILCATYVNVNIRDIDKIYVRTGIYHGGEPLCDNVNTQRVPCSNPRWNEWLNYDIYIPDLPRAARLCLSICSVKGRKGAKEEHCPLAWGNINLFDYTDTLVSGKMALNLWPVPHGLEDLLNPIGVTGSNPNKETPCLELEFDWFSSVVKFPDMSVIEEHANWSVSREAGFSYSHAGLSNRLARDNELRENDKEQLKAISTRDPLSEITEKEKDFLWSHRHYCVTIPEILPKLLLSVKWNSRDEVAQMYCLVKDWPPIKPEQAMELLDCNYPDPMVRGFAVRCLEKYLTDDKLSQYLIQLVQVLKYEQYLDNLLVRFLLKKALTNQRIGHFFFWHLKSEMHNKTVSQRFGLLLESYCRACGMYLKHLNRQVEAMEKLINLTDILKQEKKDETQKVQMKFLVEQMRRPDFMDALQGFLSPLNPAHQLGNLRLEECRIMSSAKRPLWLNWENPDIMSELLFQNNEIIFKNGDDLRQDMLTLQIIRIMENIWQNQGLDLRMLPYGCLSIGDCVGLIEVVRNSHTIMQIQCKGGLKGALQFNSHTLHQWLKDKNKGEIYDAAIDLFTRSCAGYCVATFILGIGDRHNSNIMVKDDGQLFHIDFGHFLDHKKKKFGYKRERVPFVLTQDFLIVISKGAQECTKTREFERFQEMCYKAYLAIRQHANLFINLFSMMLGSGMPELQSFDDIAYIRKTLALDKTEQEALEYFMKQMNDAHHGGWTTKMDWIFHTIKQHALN
Sequence of CHEK1 (O14757 whole entry): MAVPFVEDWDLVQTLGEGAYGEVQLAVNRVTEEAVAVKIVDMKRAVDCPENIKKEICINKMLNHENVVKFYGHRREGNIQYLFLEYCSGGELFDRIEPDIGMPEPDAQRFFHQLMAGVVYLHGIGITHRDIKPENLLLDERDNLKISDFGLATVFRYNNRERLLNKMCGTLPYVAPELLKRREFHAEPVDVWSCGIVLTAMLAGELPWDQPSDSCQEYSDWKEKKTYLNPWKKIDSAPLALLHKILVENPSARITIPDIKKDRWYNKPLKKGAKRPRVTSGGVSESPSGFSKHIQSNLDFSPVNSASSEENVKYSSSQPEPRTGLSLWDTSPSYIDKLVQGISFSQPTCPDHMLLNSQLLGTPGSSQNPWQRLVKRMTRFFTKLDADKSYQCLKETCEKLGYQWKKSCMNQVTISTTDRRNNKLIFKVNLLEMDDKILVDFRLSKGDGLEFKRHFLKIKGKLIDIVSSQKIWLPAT
Sequence of CSNK1A1 (P48729 whole entry): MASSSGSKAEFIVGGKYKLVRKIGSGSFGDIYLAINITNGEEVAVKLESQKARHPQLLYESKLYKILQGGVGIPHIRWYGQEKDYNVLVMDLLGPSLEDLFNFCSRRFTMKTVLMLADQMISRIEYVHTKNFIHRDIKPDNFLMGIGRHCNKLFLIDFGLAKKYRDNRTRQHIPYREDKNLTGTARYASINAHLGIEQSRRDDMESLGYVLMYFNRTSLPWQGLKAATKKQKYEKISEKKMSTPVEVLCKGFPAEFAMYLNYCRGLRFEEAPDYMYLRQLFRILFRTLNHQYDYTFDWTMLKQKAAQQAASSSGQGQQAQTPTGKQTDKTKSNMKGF
Sequence of IRAK1 (P51617 whole entry): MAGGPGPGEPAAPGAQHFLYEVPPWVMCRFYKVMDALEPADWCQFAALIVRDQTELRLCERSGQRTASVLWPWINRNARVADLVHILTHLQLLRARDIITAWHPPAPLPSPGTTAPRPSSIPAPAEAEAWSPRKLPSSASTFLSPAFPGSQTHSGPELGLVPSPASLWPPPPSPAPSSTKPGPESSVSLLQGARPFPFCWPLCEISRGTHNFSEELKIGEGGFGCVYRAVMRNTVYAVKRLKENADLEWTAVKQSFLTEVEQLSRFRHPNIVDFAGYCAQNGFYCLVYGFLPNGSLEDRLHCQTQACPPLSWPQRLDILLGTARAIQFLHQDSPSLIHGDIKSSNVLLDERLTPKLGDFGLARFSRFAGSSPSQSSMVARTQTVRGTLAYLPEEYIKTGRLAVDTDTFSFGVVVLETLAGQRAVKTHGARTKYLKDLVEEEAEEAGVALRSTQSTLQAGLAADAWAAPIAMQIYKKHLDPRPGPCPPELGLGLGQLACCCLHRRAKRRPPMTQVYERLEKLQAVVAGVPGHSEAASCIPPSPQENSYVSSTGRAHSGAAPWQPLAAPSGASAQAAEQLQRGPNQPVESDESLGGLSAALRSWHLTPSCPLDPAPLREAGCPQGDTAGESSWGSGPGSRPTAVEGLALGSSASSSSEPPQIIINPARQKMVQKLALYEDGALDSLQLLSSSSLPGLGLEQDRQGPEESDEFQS

Regarding `O=C(/C=C/c1cnccc1-c1ccc(F)cc1)Nc1ccc(CCc2nnco2)cc1` [T-418, (2E)-3-(4-(4-fluorophenyl)pyridin-3-yl)-N-(4-(2-(1,3,4-oxadiazol-2-yl)ethyl)phenyl)acrylamide], the remaining binding at 0.3 µM in [1] (sheet T-418) was determined as 100%; on CDKL3 (sheet T-418), 78%; on CHEK1 (sheet T-418), 100%; at CLK4 (sheet T-418) it was 100%; at CSNK1A1 (sheet T-418), 100%; on DMPK2 (sheet T-418), 71%. The remaining binding at 0.3 µM at DYRK2 (sheet T-418) is 100%; at EPHA6 (sheet T-418), 100%; at FGFR3 (sheet T-418) it was 100%; at GRK4 (sheet T-418), 100%; on IRAK1 (sheet T-418), 100%; at LCK (sheet T-418), 98%. Also, the remaining binding at 0.3 µM on MAP4K2 (sheet T-418) came to 100%; at PFPK5(P.falciparum) (sheet T-418), 76%; at PIK3CA(Q546K) (sheet T-418) it was 100%; on PRKCQ (sheet T-418), 83%; at PRKX (sheet T-418), 100%; at RIOK1 (sheet T-418), 97%. For the same molecule, the remaining binding at 0.3 µM at ROCK2 (sheet T-418) was determined as 92%; on TLK2 (sheet T-418) it was 100%; in [2] (sheet T-418), 40%; on TYRO3 (sheet T-418), 82%.
Regarding `Cc1ncccc1Oc1sc(C(N)=O)c2c1-c1c(cnn1C)CC2` [T-474, 1-methyl-8-((2-methylpyridin-3-yl)oxy)-4,5-dihydro-1H-thieno[3,4-g]indazole-6-carboxamide], the remaining binding at 0.3 µM in test [1] is 100%; on CDKL3, 96%; at CHEK1, 100%; on CLK4, 50%; on CSNK1A1 it was 98%; on DMPK2 it was 87%. Moreover, the remaining binding at 0.3 µM at DYRK2 came to 100%; at EPHA6, 100%; at FGFR3 it was 97%; on GRK4 it was 100%; on IRAK1 it was 100%; at LCK, 100%. Moreover, the remaining binding at 0.3 µM on MAP4K2 came to 100%; on PFPK5(P.falciparum) it was 95%; at PIK3CA(Q546K), 100%; at PRKCQ, 100%; at PRKX it was 100%; at RIOK1, 98%. Besides, the remaining binding at 0.3 µM on ROCK2 turned out to be 81%; at TLK2, 100%; in [2], 40%; on TYRO3, 95%.
